Results published in patent US20170321285A1, “NLRC5 AS A BIOMARKER FOR CANCER PATIENTS AND A TARGET FOR CANCER THERAPY” (THE TEXAS A&M UNIVERSITY SYSTEM, priority 2016, published 2017).

What follows are compounds tested on hla-b promoter (assay: hla-b promoter dual-luciferase reporter assay with nlrc5 mutant plasmids in HEK293T cells). Settings: 100 ng mutant plasmid with HLA-B250 luciferase reporter, 48 h post-transfection (FIG. 3H).
Format: cell-based, human
Excerpt: FIGS. 3A-3J. Copy number loss and somatic mutations in nlrc5 are associated with reduced MHC class I gene expressions. FIG. 3A. Percentage of cancer patients who carry nlrc5 copy number (CN) loss among 20 TCGA tumor types. Based on GISTIC values, samples were classified into nlrc5 diploid group and CN loss group: GISTIC 0, diploid; −1 and −2, CN loss. FIG. 3B. Percentage of cancer patients who carry copy number (CN) loss of various MHC class I-related genes for 10 TCGA tumor types for which data are available (bladder, breast, colon, head/neck, lung adeno, lung squamous, ovarian, prostate, rectal and uterine cancer, top) and ovarian cancer (bottom). Statistical significance was determined by chi-square test. *: p<0.01, **: p<0.0001. FIG. 3C. Heatmap showing gene expression of nlrc5 and hla-b in nlrc5 diploid group (n=2028) or CN loss group (n=890) for 17 TCGA tumor types in which the nlrc5 promoter is not methylated. FIG. 3D. The box plots showing nlrc5 and MHC class I-related gene expression in the nlrc5 diploid group or CN loss group in breast cancer patients. FIG. 3E. Pie chart representing the percentage distribution of different types of mutations in nlrc5 in various cancer patients (n=7752). FIG. 3F. Mutation rate in 20 TCGA tumor types. FIG. 3G. Representation of nlrc5 indicating 13 mutations found in at least 2 different cancer patients. FIG. 3H. HEK293T cells were co-transfected with either empty control vector or the respective nlrc5 mutant plasmid with hla-b reporter plasmid and hla-b promoter activity was assessed by the dual-luciferase assay and normalized against Renilla […] activity. Data are representative of two independent experiments performed in duplicate and is plotted as fold induction with respect to the control vector. Error bar: ±sd. FIG. 3I. […] FIG. 3J. Box plots for the expression level of MHC class I-related genes normalized by the expression level of nlrc5 in 20 TCGA tumor types that are either nlrc5 wild-type or nlrc5 mutant. FIGS. 3D-3J. The horizontal line corresponds to the median, the box to the 25th-75th percentile and the lines to the confidence interval (5th-95th percentile).
The expression vector for human gfp-nlrc5 in pcDNA3.1 was previously described. The reporter gene construct used for MHC class I promoter activity (HLA-B250) was also previously described. Selected nlrc5 mutants were constructed using pcDNA3.1-gfp-nlrc5 by site-directed mutagenesis using the primers listed in Table 3. All the plasmids were confirmed by sequencing (Gene Technologies Laboratory).
HEK293T cells were cultured in DMEM supplemented with 10% FBS and penicillin/streptomycin (Life Technologies) at 37° C. with 5% CO2. Cells were transiently transfected using polyethylenimine at a DNA/polyethylenimine ratio of 1:3 in serum-free media. For luciferase assay, HEK293T cells were split at a density of 5×10^4 cells/well into 24-well plates 1 day prior to transfection. Cells were co-transfected using 100 ng of gfp-nlrc5 or 100 ng of the specified nlrc5 mutant plasmids along with 100 ng of HLA-B250 luciferase reporter construct. 20 ng promoterless Renilla luciferase vector (pRL-null; Promega) were included for normalization of transfection efficiency. Cells were harvested 48 h post-transfection, and cell lysates were analyzed using the Dual-Luciferase Reporter Assay System (Promega) according to the manufacturer's instructions.

Compound | activity of the NLRC5 protein as compared to the wild-type NLRC5 protein (induction of hla-b promoter activity)
A737D: NLRC5 protein mutant found in cancer patients, expressed from gfp-nlrc5 vector made by site-directed mutagenesis | reduces the activity
A1512T: NLRC5 protein mutant found in cancer patients, expressed from gfp-nlrc5 vector made by site-directed mutagenesis | does not reduce or increases the activity
D884N: NLRC5 protein mutant found in cancer patients, expressed from gfp-nlrc5 vector made by site-directed mutagenesis | does not reduce or increases the activity
L181P: NLRC5 protein mutant found in cancer patients, expressed from gfp-nlrc5 vector made by site-directed mutagenesis | reduces the activity
Q1847*: NLRC5 nonsense mutant found in cancer patients, expressed from gfp-nlrc5 vector made by site-directed mutagenesis | reduces the activity
R262C: NLRC5 protein mutant found in cancer patients, expressed from gfp-nlrc5 vector made by site-directed mutagenesis | reduces the activity
R386W: NLRC5 protein mutant found in cancer patients, expressed from gfp-nlrc5 vector made by site-directed mutagenesis | does not reduce or increases the activity
R550W: NLRC5 protein mutant found in cancer patients, expressed from gfp-nlrc5 vector made by site-directed mutagenesis | reduces the activity
R574H: NLRC5 protein mutant found in cancer patients, expressed from gfp-nlrc5 vector made by site-directed mutagenesis | does not reduce or increases the activity
R1830C: NLRC5 protein mutant found in cancer patients, expressed from gfp-nlrc5 vector made by site-directed mutagenesis | reduces the activity
S496F: NLRC5 protein mutant found in cancer patients, expressed from gfp-nlrc5 vector made by site-directed mutagenesis | does not reduce or increases the activity
T1173M: NLRC5 protein mutant found in cancer patients, expressed from gfp-nlrc5 vector made by site-directed mutagenesis | does not reduce or increases the activity

The compounds below were run on cancer cell lines (assay: not given). Settings: 3 μM 5-azacytidine, various cancer cell lines, qPCR (FIG. 2A).

Compound | expression of hla-b | expression of nlrc5
Nc1ncn([C@@H]2O[C@H](CO)[C@@H](O)[C@H]2O)c(=O)n1 [5-Azacitidine, 4-amino-1-β-D-ribofuranosyl-1,3,5-triazin-2(1H)-one] | upregulation | upregulation
